Holding throughout (test): Competitive isoTOP-ABPP, cell lysates
What all share (format): binding

For test [1], the target named is CASP8 C360 (Q14790) (Homo sapiens, UniProt Q14790). The conditions noted are these: for isoTOP-ABPP reactivity ratio, Q14790_C360: 500 μm.
The target in test [2] is USP16 C205 (Q9Y5T5) (Homo sapiens, UniProt Q9Y5T5).
For test [3], the target named is MLTK C22 (Q9NYL2) (Homo sapiens, UniProt Q9NYL2). The conditions noted are these: for R value (DMSO/fragment): in vitro, MDA-MB-231; for isoTOP-ABPP ratio (reactivity profile), Q9NYL2_C22: 500 μm in-vitro ramos_231.
The target of test [4] is CDK5 C157 (Q00535) (Homo sapiens, UniProt Q00535).
Chain of CDK5 C157 (Q00535) (Q00535 whole entry): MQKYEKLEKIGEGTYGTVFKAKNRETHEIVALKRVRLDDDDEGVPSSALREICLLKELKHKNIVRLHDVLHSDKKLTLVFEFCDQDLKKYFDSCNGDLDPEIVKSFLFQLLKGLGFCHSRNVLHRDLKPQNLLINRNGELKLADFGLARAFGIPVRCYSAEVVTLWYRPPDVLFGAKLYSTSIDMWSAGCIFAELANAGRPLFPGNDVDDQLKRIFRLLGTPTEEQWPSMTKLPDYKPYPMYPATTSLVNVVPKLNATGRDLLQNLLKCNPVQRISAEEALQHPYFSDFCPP
In test [5] the target is T1, NR3C1 C302 (P04150) (Homo sapiens, UniProt P04150).
T1 sequence (P04150 1-777): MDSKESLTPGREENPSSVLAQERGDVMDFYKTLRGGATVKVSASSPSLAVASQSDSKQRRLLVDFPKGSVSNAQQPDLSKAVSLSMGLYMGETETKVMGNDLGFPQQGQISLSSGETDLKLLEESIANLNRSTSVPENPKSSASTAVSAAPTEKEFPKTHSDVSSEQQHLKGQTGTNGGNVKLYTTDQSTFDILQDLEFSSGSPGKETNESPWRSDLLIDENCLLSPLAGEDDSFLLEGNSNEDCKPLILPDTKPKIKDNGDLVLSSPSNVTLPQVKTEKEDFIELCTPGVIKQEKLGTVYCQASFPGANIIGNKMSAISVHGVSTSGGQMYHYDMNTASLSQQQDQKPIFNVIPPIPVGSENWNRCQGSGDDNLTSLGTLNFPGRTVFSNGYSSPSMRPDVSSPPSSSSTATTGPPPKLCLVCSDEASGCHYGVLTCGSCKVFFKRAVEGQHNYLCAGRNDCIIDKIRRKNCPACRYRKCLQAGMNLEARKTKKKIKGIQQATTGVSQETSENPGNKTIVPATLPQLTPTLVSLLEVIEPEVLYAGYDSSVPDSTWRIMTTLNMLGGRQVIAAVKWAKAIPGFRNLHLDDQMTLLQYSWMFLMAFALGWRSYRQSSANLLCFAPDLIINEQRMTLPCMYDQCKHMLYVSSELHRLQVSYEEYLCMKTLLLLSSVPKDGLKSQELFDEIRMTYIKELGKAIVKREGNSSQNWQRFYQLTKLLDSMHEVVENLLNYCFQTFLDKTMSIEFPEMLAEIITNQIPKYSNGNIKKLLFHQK

Test [6] has as its target T2, CYR61 C39 (O00622) (Homo sapiens, UniProt O00622).
T2 sequence (O00622 25-381): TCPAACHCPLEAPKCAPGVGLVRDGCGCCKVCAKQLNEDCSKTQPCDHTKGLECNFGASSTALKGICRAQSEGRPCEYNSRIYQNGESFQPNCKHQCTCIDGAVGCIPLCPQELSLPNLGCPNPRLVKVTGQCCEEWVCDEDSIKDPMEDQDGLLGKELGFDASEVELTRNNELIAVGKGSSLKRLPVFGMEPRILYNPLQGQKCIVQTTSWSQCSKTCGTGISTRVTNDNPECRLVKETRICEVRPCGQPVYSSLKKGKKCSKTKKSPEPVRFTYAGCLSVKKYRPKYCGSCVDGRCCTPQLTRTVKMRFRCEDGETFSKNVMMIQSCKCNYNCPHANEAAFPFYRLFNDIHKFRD
Particulars: for R value (DMSO/fragment): in vitro, MDA-MB-231; for isoTOP-ABPP ratio (reactivity profile), O00622_C39: 500 μm in-vitro ramos_231.

The target of test [7] is LRBA C1704 (P50851) (Homo sapiens, UniProt P50851).
Chain of LRBA C1704 (P50851) (P50851 whole entry): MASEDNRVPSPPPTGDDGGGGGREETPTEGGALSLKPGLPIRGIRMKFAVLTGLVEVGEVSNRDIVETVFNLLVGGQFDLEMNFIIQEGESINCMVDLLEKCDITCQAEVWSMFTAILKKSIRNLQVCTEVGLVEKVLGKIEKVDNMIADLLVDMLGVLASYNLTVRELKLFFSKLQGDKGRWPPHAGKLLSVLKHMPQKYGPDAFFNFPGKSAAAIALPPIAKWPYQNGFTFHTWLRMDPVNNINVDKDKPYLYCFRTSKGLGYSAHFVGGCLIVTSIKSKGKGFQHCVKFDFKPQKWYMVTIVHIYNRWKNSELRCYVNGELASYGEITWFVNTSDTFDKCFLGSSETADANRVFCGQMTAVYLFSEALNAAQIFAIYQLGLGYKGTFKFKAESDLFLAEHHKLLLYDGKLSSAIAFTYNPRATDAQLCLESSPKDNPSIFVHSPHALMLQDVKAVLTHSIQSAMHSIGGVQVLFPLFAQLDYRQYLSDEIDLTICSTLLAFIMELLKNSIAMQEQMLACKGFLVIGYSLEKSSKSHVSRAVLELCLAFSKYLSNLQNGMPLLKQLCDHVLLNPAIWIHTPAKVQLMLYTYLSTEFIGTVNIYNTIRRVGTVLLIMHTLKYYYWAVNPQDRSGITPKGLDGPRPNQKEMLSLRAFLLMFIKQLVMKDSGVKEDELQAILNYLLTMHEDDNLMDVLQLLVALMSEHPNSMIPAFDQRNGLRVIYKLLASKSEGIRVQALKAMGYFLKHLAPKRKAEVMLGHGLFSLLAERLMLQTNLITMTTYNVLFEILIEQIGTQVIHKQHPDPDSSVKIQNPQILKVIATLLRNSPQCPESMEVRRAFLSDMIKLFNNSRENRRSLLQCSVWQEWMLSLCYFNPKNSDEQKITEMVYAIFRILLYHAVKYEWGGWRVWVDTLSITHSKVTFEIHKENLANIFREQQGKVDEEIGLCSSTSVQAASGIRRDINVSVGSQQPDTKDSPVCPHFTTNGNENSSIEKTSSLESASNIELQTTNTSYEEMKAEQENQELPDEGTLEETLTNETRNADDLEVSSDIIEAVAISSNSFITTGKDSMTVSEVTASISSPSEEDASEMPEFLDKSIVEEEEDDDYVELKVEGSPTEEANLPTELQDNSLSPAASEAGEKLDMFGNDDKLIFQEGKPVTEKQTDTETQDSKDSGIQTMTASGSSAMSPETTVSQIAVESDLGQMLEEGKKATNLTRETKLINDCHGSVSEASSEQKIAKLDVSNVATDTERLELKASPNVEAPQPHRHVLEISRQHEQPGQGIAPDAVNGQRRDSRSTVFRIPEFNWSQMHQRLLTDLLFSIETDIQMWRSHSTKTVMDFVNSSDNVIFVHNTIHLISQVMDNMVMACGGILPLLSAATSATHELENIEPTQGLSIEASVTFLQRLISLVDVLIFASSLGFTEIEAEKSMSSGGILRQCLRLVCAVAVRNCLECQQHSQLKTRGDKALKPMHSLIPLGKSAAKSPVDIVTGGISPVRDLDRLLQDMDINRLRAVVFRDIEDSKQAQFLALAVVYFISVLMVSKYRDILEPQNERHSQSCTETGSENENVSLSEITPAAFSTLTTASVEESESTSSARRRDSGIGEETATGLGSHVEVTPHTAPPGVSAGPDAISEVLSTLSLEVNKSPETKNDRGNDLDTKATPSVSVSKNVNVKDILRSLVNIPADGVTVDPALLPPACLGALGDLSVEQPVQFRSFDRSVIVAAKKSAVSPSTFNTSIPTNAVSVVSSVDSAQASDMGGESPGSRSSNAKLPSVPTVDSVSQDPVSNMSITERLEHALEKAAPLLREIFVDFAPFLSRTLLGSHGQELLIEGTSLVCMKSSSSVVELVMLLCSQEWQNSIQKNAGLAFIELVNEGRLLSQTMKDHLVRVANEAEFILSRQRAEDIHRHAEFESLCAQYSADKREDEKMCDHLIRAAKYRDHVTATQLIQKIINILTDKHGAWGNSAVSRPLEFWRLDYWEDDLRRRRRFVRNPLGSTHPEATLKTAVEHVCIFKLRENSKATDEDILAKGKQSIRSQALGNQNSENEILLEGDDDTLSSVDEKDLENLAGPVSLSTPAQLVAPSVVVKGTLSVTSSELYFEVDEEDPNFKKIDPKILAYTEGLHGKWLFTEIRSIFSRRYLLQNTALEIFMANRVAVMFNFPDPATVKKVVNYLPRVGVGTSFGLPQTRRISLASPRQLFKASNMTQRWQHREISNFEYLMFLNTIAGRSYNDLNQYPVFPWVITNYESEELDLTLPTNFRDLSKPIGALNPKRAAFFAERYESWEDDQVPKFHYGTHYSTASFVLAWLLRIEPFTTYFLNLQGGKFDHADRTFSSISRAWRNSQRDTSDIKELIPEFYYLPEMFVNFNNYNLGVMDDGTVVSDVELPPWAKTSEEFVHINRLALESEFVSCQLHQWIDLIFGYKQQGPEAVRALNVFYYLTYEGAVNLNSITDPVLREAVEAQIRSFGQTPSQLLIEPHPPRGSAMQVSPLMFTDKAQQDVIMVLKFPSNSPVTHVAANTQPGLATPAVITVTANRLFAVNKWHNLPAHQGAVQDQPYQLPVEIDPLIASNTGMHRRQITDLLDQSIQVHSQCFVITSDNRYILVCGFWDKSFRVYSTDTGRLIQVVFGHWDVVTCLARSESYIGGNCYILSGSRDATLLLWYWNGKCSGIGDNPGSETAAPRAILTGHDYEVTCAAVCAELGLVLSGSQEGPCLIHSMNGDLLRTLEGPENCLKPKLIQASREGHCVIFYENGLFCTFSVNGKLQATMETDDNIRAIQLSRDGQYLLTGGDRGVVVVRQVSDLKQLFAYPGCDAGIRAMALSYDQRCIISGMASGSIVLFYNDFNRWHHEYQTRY

The structures appear in SMILES notation. Where “and” joins values, the source holds several entries; their conditions need not be identical. Equal entries are not always repeated.

Chain of CASP8 C360 (Q14790) (Q14790 whole entry): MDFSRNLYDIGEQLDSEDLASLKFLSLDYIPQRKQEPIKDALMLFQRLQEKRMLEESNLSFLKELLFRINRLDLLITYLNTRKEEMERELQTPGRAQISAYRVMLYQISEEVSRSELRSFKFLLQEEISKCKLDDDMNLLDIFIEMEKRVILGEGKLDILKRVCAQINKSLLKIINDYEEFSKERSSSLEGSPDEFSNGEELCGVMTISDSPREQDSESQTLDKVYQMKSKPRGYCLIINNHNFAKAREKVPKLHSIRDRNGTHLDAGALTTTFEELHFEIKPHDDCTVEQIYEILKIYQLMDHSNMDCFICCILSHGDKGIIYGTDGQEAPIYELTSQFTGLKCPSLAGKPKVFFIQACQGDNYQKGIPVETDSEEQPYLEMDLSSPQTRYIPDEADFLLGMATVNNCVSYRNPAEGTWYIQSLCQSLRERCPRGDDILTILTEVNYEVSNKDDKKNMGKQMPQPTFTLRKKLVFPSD
Chain of USP16 C205 (Q9Y5T5) (Q9Y5T5 whole entry, the tested form may be a part): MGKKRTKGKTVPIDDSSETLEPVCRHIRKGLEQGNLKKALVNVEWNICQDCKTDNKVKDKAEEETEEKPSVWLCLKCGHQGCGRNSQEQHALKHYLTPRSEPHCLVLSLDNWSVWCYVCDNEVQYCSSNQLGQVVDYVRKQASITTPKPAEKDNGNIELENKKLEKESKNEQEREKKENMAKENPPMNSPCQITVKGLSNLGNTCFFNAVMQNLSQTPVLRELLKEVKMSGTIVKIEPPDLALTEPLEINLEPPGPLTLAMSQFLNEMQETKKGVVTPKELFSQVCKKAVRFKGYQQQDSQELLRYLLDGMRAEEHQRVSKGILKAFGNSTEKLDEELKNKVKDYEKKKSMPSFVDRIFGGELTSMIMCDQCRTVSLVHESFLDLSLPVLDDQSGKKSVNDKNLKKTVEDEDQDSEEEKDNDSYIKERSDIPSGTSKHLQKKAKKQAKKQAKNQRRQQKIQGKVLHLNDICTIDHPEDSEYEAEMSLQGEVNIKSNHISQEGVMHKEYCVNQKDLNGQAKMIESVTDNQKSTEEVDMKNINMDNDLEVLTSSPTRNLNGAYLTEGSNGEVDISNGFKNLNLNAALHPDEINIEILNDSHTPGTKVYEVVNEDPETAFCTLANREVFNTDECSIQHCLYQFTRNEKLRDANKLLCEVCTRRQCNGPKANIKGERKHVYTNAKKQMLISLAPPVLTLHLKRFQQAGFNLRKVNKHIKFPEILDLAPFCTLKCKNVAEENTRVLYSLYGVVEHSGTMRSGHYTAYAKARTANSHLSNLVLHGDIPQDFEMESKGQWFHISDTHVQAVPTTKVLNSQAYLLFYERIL

Turning to `O=C(CCl)Nc1cc(C(F)(F)F)cc(C(F)(F)F)c1` [compound 3], the “R value (DMSO/fragment)” value in test [1] (500 μM, in vitro, MDA-MB-231) is listed as 3.3; in test [1] (500 μM, invitro, ramos) it was 2.3; in test [2] (500 μM, invitro, ramos) it was 8.8; in test [3] (500 μM) it was 1.8; in test [4] (500 μM, invitro, ramos), 20.0; in test [5] (500 μM, in vitro, MDA-MB-231) it was 7.6. In addition, the “R value (DMSO/fragment)” value turned out to be 4.0 in test [6] (500 μM) and 3.6 in test [7] (500 μM, invitro, ramos).

As to `COc1ccc(C2CC(c3cccs3)=NN2C(=O)CCl)cc1` (stereo not drawn) [compound 4], the “R value (DMSO/fragment)” value in test [1] (250 μM, in vitro, MDA-MB-231) was 12.3; in test [2] (250 μM, in vitro, Ramos), 20.0; in test [3] (250 μM) it was 20.0; in test [4] (250 μM, in vitro, Ramos) it was 1.3; in test [6] (250 μM) it was 2.8; in test [7] (250 μM, in vitro, Ramos) it was 1.5.

For `Cn1cc(S(=O)(=O)N2CCOCC2)cc1C(=O)NC(=O)CCl` [compound 11], the “isoTOP-ABPP ratio Q14790_C360” value in test [1] (500 μM, invitro, 231) is 20.0; in test [1] (500 μM, invitro, ramos), 20.0. Moreover, the “isoTOP-ABPP ratio, Q9Y5T5_C205” value in test [2] (500 μM, invitro, 231) turned out to be 20.0. Also, in test [4] (500 μM, invitro, ramos), the “isoTOP-ABPP ratio, Q00535_C157” value was found to be 1.3. For the same compound, the “isoTOP-ABPP ratio, P04150_C302” value in test [5] (500 μM, invitro, ramos) amounted to 1.5. In addition, the “isoTOP-ABPP ratio, O00622_C39” value in test [6] (500 μM, invitro, 231) is listed as 9.6. The “isoTOP-ABPP ratio, P50851_C1704” value in test [7] (500 μM, invitro, ramos) was found to be 1.4.

On to `N#C/C(=C\c1cc(C(F)(F)F)cc(C(F)(F)F)c1)C(N)=O` [compound 23], for which the “isoTOP-ABPP ratio (reactivity profile), Q14790_C360” value in test [1] (500 μm in-vitro ramos) and in test [1] (500 μm in-vitro ramos_231) was 1.4 throughout. For the same compound, the “isoTOP-ABPP ratio (reactivity profile), Q9Y5T5_C205” value in test [2] (500 μm in-vitro ramos) turned out to be 1.2. In addition, the “isoTOP-ABPP ratio (reactivity profile), Q9NYL2_C22” value (from here on “isoTOP-ABPP ratio … Q9NYL2_C22”) in test [3] amounted to 1.4. Moreover, the “isoTOP-ABPP ratio (reactivity profile), Q00535_C157” value in test [4] (500 μm in-vitro ramos) is 2.8. In test [5] (500 μm in-vitro ramos), the “isoTOP-ABPP ratio (reactivity profile), P04150_C302” value is reported as 4.7. In addition, the “isoTOP-ABPP ratio (reactivity profile), O00622_C39” value in test [6] is 4.4. The “isoTOP-ABPP ratio (reactivity profile), P50851_C1704” value in test [7] (500 μm in-vitro ramos) is on record as 3.4.

As for `CC(C)CCOCCNC(=O)CCl` [compound 27], the “isoTOP-ABPP ratio (reactivity profile), Q14790_C360” value in test [1] (500 μm in-vitro ramos) worked out at 1.2; in test [1] (500 μm in-vitro ramos_231), 0.8. Besides, the “isoTOP-ABPP ratio (reactivity profile), Q9Y5T5_C205” value came out at 0.9 in test [2] (500 μm in-vitro ramos) and 1.6 in test [2] (500 μm in-vitro ramos_231). In addition, the “isoTOP-ABPP ratio … Q9NYL2_C22” value in test [3] was determined as 1.1. Moreover, the “isoTOP-ABPP ratio (reactivity profile), Q00535_C157” value in test [4] (500 μm in-vitro ramos) worked out at 1.0. Moreover, the “isoTOP-ABPP ratio (reactivity profile), P04150_C302” value in test [5] (500 μm in-vitro ramos_231) is 1.3 and 1.0. Also, the “isoTOP-ABPP ratio (reactivity profile), O00622_C39” value in test [6] was determined as 1.0. Also, in test [7] (500 μm in-vitro ramos_231), the “isoTOP-ABPP ratio (reactivity profile), P50851_C1704” value came out at 1.1.

Regarding `COc1ccccc1OCCNC(=O)CCl` [compound 28], the “isoTOP-ABPP ratio (reactivity profile), Q14790_C360” value in test [1] (500 μm in-vitro ramos_231) is 1.1. The “isoTOP-ABPP ratio (reactivity profile), Q9Y5T5_C205” value in test [2] (500 μm in-vitro ramos) worked out at 1.6. The “isoTOP-ABPP ratio … Q9NYL2_C22” value in test [3] worked out at 1.4. The results for the “isoTOP-ABPP ratio (reactivity profile), Q00535_C157” value in test [4] (500 μm in-vitro ramos) and in test [4] (500 μm in-vitro ramos_231) were 1.0 and 0.9, respectively. Besides, the “isoTOP-ABPP ratio (reactivity profile), O00622_C39” value in test [6] is given as 1.0.

As for `C=CC(=O)Nc1cc(F)c(N2CCN(C(=O)OC(C)(C)C)CC2)c(F)c1` [compound 38], the “isoTOP-ABPP reactivity ratio, Q14790_C360” value in test [1] (in-vitro_ramos) is 4.1; in test [1] (in-vitro_ramos_231), 1.0. Moreover, in test [2] (500 μm, in-vitro_ramos), the “isoTOP-ABPP reactivity ratio, Q9Y5T5_C205” value is recorded as 1.9. Moreover, the “isoTOP-ABPP reactivity ratio, Q9NYL2_C22” value in test [3] (500 μm, in-vitro_ramos_231) is reported as 1.2. In test [4] (500 μm, in-vitro_ramos_231), the “isoTOP-ABPP reactivity ratio, Q00535_C157” value was 0.9. For the same compound, in test [6] (500 μm, in-vitro_ramos_231), the “isoTOP-ABPP reactivity ratio, O00622_C39” value was 0.8. Besides, the “isoTOP-ABPP reactivity ratio, P50851_C1704” value in test [7] (500 μm, in-vitro_ramos) was 2.5.

The record behind these values is patent publication US10670605B2, “Cysteine reactive probes and uses thereof” (The Scripps Research Institute, priority 2015, dated 2020).
